From PubChem BioAssay AID2060603 (Molecular Pharmacology Branch, DTP, NCI, 2025)
pIC50: −log10 of the molar value. Several values for one entry are separate records, joined by “and”; a condition that tells them apart may be missing. Equal values may be shown once. One block for each compound: values may come before it.

System: 422866-222-R5-J1-PDC spheroid viability
Test: Anticancer human tumor 422866-222-R5-J1-PDC patient-derived pancreatic adenocarcinoma cell line growth inhibition [CLK]
Conditions: spheroids with HUVEC and MSC; for viability, T/C: stronger effect = lower value
Summary of the method: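 Patient-derived tumor cells grown as complex spheroids with HUVEC endothelial cells and mesenchymal stem cells, treated with drug combinations. Concentrations descend in half-log steps from near clinical Cmax, or from 10 microM if Cmax unknown.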

[1] = curve of first compound, second compound 0.0316 µM
[2] = curve of first compound, second compound 0.1 µM
[3] = curve of first compound, second compound 0.316 µM
[4] = curve of first compound, second compound 1 µM
[5] = curve of first compound, second compound 3.16 µM
[6] = curve of first compound, second compound 10 µM
[7] = second compound 0.0316 µM, first compound 0.0316 µM
[8] = second compound 0.0316 µM, first compound 0.1 µM
[9] = second compound 0.0316 µM, first compound 0.316 µM
[10] = second compound 0.0316 µM, first compound 1 µM
[11] = second compound 0.0316 µM, first compound 3.16 µM
[12] = second compound 0.0316 µM, first compound 10 µM
[13] = second compound 0.1 µM, first compound 0.0316 µM
[14] = second compound 0.1 µM, first compound 0.1 µM
[15] = second compound 0.1 µM, first compound 0.316 µM
[16] = second compound 0.1 µM, first compound 1 µM
[17] = second compound 0.1 µM, first compound 3.16 µM
[18] = second compound 0.1 µM, first compound 10 µM
[19] = second compound 0.316 µM, first compound 0.0316 µM
[20] = second compound 0.316 µM, first compound 0.1 µM
[21] = second compound 0.316 µM, first compound 0.316 µM
[22] = second compound 0.316 µM, first compound 1 µM
[23] = second compound 0.316 µM, first compound 3.16 µM
[24] = second compound 0.316 µM, first compound 10 µM
[25] = second compound 1 µM, first compound 0.0316 µM
[26] = second compound 1 µM, first compound 0.1 µM
[27] = second compound 1 µM, first compound 0.316 µM
[28] = second compound 1 µM, first compound 1 µM
[29] = second compound 1 µM, first compound 3.16 µM
[30] = second compound 1 µM, first compound 10 µM
[31] = second compound 3.16 µM, first compound 0.0316 µM
[32] = second compound 3.16 µM, first compound 0.1 µM
[33] = second compound 3.16 µM, first compound 0.316 µM
[34] = second compound 3.16 µM, first compound 1 µM
[35] = second compound 3.16 µM, first compound 3.16 µM
[36] = second compound 3.16 µM, first compound 10 µM
[37] = second compound 10 µM, first compound 0.0316 µM
[38] = second compound 10 µM, first compound 0.1 µM
[39] = second compound 10 µM, first compound 0.316 µM
[40] = second compound 10 µM, first compound 1 µM
[41] = second compound 10 µM, first compound 3.16 µM
[42] = second compound 10 µM, first compound 10 µM
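Note: spheroids exposed to agents for seven days before readout.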

pIC50 [1]: 6.80 | pIC50 [2]: 6.97 | pIC50 [3]: 7.07 | pIC50 [4]: 7.10 | pIC50 [5]: 6.96 | pIC50 [6]: > 7.50
SMILES: COc1cccc2c1C(=O)c1c(O)c3c(c(O)c1C2=O)CC(O)(C(=O)CO)CC3OC1CC(N)C(O)C(C)O1 (stereo unspecified) + CNC(=O)c1ccc(Nc2nc(OC3CCCC3)c3c(-c4ccc5nc(C)oc5c4)c[nH]c3n2)c(OC)c1
viability, T/C [7]: 65% | viability, T/C [8]: 60.4% | viability, T/C [9]: 34.8% | viability, T/C [10]: 28.6% | viability, T/C [11]: 30.4% | viability, T/C [12]: 27.8% | viability, T/C [13]: 66.2% | viability, T/C [14]: 50.3% | viability, T/C [15]: 37.8% | viability, T/C [16]: 28.2% | viability, T/C [17]: 30.9% | viability, T/C [18]: 28.6% | viability, T/C [19]: 67.6% | viability, T/C [20]: 47.1% | viability, T/C [21]: 38.7% | viability, T/C [22]: 36.6% | viability, T/C [23]: 35.2% | viability, T/C [24]: 33.4% | viability, T/C [25]: 60.1% | viability, T/C [26]: 47.5% | viability, T/C [27]: 31.1% | viability, T/C [28]: 32.2% | viability, T/C [29]: 31.2% | viability, T/C [30]: 30.5% | viability, T/C [31]: 48.6% | viability, T/C [32]: 53.3% | viability, T/C [33]: 39% | viability, T/C [34]: 30.1% | viability, T/C [35]: 34.3% | viability, T/C [36]: 35.9% | viability, T/C [37]: 48.9% | viability, T/C [38]: 41.1% | viability, T/C [39]: 35.2% | viability, T/C [40]: 31.1% | viability, T/C [41]: 32% | viability, T/C [42]: 48.9%

SMILES: Nc1ccn(C2OC(CO)C(O)C2(F)F)c(=O)n1 (stereo unspecified) + CN1CCN(c2cc(C(=O)Nc3cc4cc(-c5cnn(C)c5)ccc4cn3)ccn2)CC1
pIC50 [1]: 7.13 | pIC50 [2]: 7.07 | pIC50 [3]: 6.81 | pIC50 [4]: > 7.50 | pIC50 [5]: > 7.50 | pIC50 [6]: > 7.50 | viability, T/C [7]: 62.9% | viability, T/C [8]: 46.5% | viability, T/C [9]: 37.8% | viability, T/C [10]: 42% | viability, T/C [11]: 40.3% | viability, T/C [12]: 38.1% | viability, T/C [13]: 74.4% | viability, T/C [14]: 44.9% | viability, T/C [15]: 57.2% | viability, T/C [16]: 45.2% | viability, T/C [17]: 38.7% | viability, T/C [18]: 37.5% | viability, T/C [19]: 66.9% | viability, T/C [20]: 50.9% | viability, T/C [21]: 46.9% | viability, T/C [22]: 55.9% | viability, T/C [23]: 45.6% | viability, T/C [24]: 46% | viability, T/C [25]: 25.9% | viability, T/C [26]: 20.6% | viability, T/C [27]: 21.3% | viability, T/C [28]: 16.7% | viability, T/C [29]: 19.1% | viability, T/C [30]: 14.9% | viability, T/C [31]: 8.63% | viability, T/C [32]: 8.77% | viability, T/C [33]: 10.5% | viability, T/C [34]: 9.38% | viability, T/C [35]: 10.2% | viability, T/C [36]: 10.9% | viability, T/C [37]: 1.24% | viability, T/C [38]: 1.59% | viability, T/C [39]: 1.16% | viability, T/C [40]: 1.57% | viability, T/C [41]: 4.23% | viability, T/C [42]: 3.93%

pIC50 (curve of compound): < 5.00
SMILES: O=C(c1cc(Cc2n[nH]c(=O)c3ccccc23)ccc1F)N1CCN(C(=O)C2CC2)CC1
viability, T/C (compound 0.0316 µM): 99% and 103% | viability, T/C (compound 0.1 µM): 94% and 98.7% | viability, T/C (compound 0.316 µM): 102% and 87.7% | viability, T/C (compound 1 µM): 102% and 105% | viability, T/C (compound 3.16 µM): 80.1% and 94% | viability, T/C (compound 10 µM): 81.2% and 78.8%
